Measured values from PubChem BioAssay (NCI).
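Growth conditions: 96-well plates. Treatment: test compound, 48 hours, 5 concentrations. Analysis: linear interpolation between bracketing concentrations; unreached endpoints set to highest concentration. GI50 is the concentration that inhibits growth by half. TGI: concentration producing complete growth inhibition.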

How the values were obtained:
Assay in all cases: inhibition of tumour cell growth, NCI panel, 48 h
HS 578T breast = test system: HS 578T breast
LXFL 529 NSCLC = test system: LXFL 529 NSCLC
SNB-78 CNS = test system: SNB-78 CNS
XF 498 CNS = test system: XF 498 CNS
DLD-1 colon = test system: DLD-1 colon
M19-MEL melanoma = test system: M19-MEL melanoma
DMS 114 small cell lung = test system: DMS 114 small cell lung
MDA-N = test system: MDA-N
RXF-631 renal = test system: RXF-631 renal

SMILES | GI50 (HS 578T breast) | TGI (HS 578T breast) | TGI (LXFL 529 NSCLC) | TGI (SNB-78 CNS) | TGI (DLD-1 colon) | TGI (M19-MEL melanoma) | other results
COc1ccc(OC)c(/C=C/C(=O)N/N=C/c2ccc(Cl)cc2)c1 | 0.188 µM | > 100 µM | – | – | – | – | –
CC(=O)OC1Oc2ccccc2-c2oc(=O)c(-c3cc4ccc(N(C)C)cc4oc3=O)cc21 (stereo unspecified) | 4.56 µM | 26.1 µM | – | – | – | – | –
Cc1cccc(NC(=O)C(=O)Cc2nc3ccccc3[nH]c2=O)c1C | – | – | > 100 µM | > 100 µM | > 100 µM | > 100 µM | TGI (XF 498 CNS): > 100 µM; TGI (DMS 114 small cell lung): > 100 µM
Cc1cccc2nc(-c3ccccc3)cc(=O)n12 | – | > 100 µM | – | – | – | – | TGI (MDA-N): > 100 µM
CCCCN=C(N)c1ccc(OCCSCCOc2ccc(C(N)=NCCCC)cc2)cc1 | 34.2 µM | > 100 µM | – | – | – | – | –
CC12CCCC(O)C1CCC1=CC3(CCC12)SCCS3 (stereo unspecified) | – | – | – | – | – | – | TGI (MDA-N): > 10 µM
Nc1ncc(-c2cnn(CCO)c2)c2scc(-c3ccc(NC(=O)Nc4cccc(F)c4)cc3)c12 | 0.273 µM | 3.02 µM | – | – | – | – | –
CCc1[nH]c(=O)nc(N)c1-c1ccc(N2CCCCC2)c([N+](=O)[O-])c1 | – | > 100 µM | – | – | – | – | TGI (MDA-N): > 100 µM
N.N.N.N.N.O=C([O-])c1nn[n-]n1.[Cl-].[Co+3] | – | – | > 100 µM | > 100 µM | > 100 µM | – | GI50 (LXFL 529 NSCLC): > 100 µM; GI50 (SNB-78 CNS): > 100 µM; GI50 (DLD-1 colon): > 100 µM
Nc1ccc(/C=C/c2ccnc3ccccc23)cc1 | – | – | 58.7 µM | – | > 100 µM | 90 µM | TGI (DMS 114 small cell lung): 45.8 µM
CC(C)=CCC/C(=C/CC/C(C)=C/CCc1ccoc1)C(=O)O | – | – | > 100 µM | > 100 µM | > 100 µM | > 100 µM | TGI (XF 498 CNS): > 100 µM; TGI (DMS 114 small cell lung): > 100 µM
COC(=O)C(=O)C(C(=O)C(=O)Nc1ccccc1C(N)=O)c1nc2ccc(Cl)cc2[nH]c1=O (stereo unspecified) | – | > 100 µM | – | – | – | – | TGI (MDA-N): > 100 µM
NC(N)=NCCCn1c2c(c3ccccc3c1=O)C(=O)c1ccccc1-2 | 2.67 µM | 25.7 µM | – | – | – | – | –
CC[O-].CC[O-].O=C1c2ccccc2C(=O)c2c(O)ccc([O-])c21.O=C1c2ccccc2C(=O)c2c(O)ccc([O-])c21.[Ti+4] | – | – | > 100 µM | > 100 µM | > 100 µM | 73.4 µM | TGI (DMS 114 small cell lung): > 100 µM
COc1c2c(cc3nc4ccccc4nc13)CCC(C(C)(C)O)C2 (stereo unspecified) | – | – | > 100 µM | > 100 µM | > 100 µM | > 100 µM | TGI (XF 498 CNS): > 100 µM
NC1=NN(c2ccccc2)C(=O)C1C(=O)CCC(=O)Nc1cccc(C(F)(F)F)c1 (stereo unspecified) | – | – | > 100 µM | > 100 µM | > 100 µM | > 100 µM | TGI (RXF-631 renal): > 100 µM; TGI (DMS 114 small cell lung): > 100 µM
COc1cc(OC)c(/C=C/C(=O)c2c(OC)cccc2OC)c(OC)c1 | 1.28 µM | > 36.3 µM | – | – | – | – | –
CN(C)CCCn1c2c(c3ccccc3c1=O)C(=O)c1ccccc1-2 | 8.06 µM | 38 µM | – | – | – | – | –
Cn1cc(C(=O)c2ccccc2)ccc1=O | – | – | > 100 µM | > 100 µM | > 100 µM | > 100 µM | TGI (XF 498 CNS): > 100 µM; TGI (DMS 114 small cell lung): > 100 µM
O=C(O)CN(c1ccccc1)S(=O)(=O)c1ccccc1[N+](=O)[O-] | – | – | > 100 µM | – | > 100 µM | > 100 µM | TGI (RXF-631 renal): > 100 µM; TGI (XF 498 CNS): > 100 µM
Cc1noc(C)c1CCCOC1COc2ccccc2OCCOCCOc2ccccc2OC1 | – | – | > 100 µM | > 100 µM | > 100 µM | > 100 µM | TGI (XF 498 CNS): > 100 µM; TGI (DMS 114 small cell lung): > 100 µM

SMILES | GI50 (HS 578T breast) | TGI (HS 578T breast) | TGI (LXFL 529 NSCLC) | TGI (SNB-78 CNS) | TGI (DLD-1 colon) | TGI (M19-MEL melanoma) | other results
COc1ccc(C(=O)COc2cccc(/C=C3\COc4ccc5ccccc5c4C3=O)c2)cc1 | 4.93 µM | > 100 µM | – | – | – | – | –
CCCCCCCCCCCCCC1CCC(CC)N1 (stereo unspecified) | – | – | 32.6 µM | 30.4 µM | 28.9 µM | 10.6 µM | TGI (DMS 114 small cell lung): 17.4 µM
CC1=C(C)CC2(CCCCC2=O)S(=O)C1 (stereo unspecified) | – | – | > 100 µM | > 100 µM | > 100 µM | > 100 µM | TGI (XF 498 CNS): > 100 µM; TGI (DMS 114 small cell lung): > 100 µM
O=C(c1cccc(O)c1O)c1cn(Cc2ccc(F)cc2)c2cccc(O)c12 | 3.42 µM | 20.6 µM | – | – | – | – | –
NC(=S)N/N=C/c1ccc(OC(=O)COc2ccc(Cl)cc2)cn1 | 2.86 µM | > 100 µM | – | – | – | – | –
Fc1cc(F)c(COc2cc(Cn3cnc4c(Cl)nc(Cl)nc43)ccc2C23CC4CC(CC(C4)C2)C3)cc1F | 22.9 µM | 60.9 µM | – | – | – | – | –
Cc1cc(C)nc(NS(=O)(=O)c2ccc(Nc3c4ccccc4nc4c(C(=O)Nc5ccc(S(=O)(=O)Nc6cc(C)on6)cc5)cccc34)cc2)n1 | – | – | 33 µM | > 100 µM | 78.8 µM | 47.2 µM | TGI (XF 498 CNS): 53.5 µM; TGI (DMS 114 small cell lung): 35.3 µM
CCOC1=NC(=O)CC(c2ccccc2)S1 (stereo unspecified) | – | – | > 100 µM | > 100 µM | > 100 µM | > 100 µM | TGI (XF 498 CNS): > 100 µM
Cc1nc2ccccc2c(=O)n1NC(=O)c1ccccn1 | – | > 100 µM | – | – | – | – | TGI (MDA-N): > 100 µM
COc1cc2oc(-c3ccc(O)cc3)cc(=O)c2c(OC)c1OC | – | > 100 µM | – | – | – | – | TGI (MDA-N): > 100 µM
CCOC(=O)Sc1ncnc2nc[nH]c12 | 13.8 µM | > 100 µM | – | – | – | – | –
N#Cc1nc(C2OC(COC(=O)c3ccccc3)C(OC(=O)c3ccccc3)C2OC(=O)c2ccccc2)oc1N (stereo unspecified) | – | – | – | > 100 µM | > 100 µM | > 100 µM | TGI (DMS 114 small cell lung): > 100 µM
CCN(CC)c1sc(N(CC)CC)c2c1SSSSS2 | 2.75 µM | 23.2 µM | – | – | – | – | –
COC(=O)Nc1nc2ccc(Oc3ccc(NC(=O)Nc4ccccc4)cc3)cc2[nH]1 | 0.0921 µM | 4.45 µM | – | – | – | – | –
NC(CC(=O)OCc1ccccc1)C(=O)OCc1ccccc1 (stereo unspecified) | – | > 100 µM | – | – | – | – | TGI (MDA-N): > 100 µM
CC(=O)OC1=NN=C2COC(c3ccccc3OC(C)=O)=NN2C1 | – | > 50 µM | – | – | – | – | TGI (MDA-N): > 50 µM
CCN(CC)CCCC(C)Nc1c(C)cnc2cc(Cl)c(C)cc12 (stereo unspecified) | 19.1 µM | 45.2 µM | – | – | – | – | –
COc1cc(C2=NN(C(C)=O)C(c3ccc(OC(C)=O)cc3OC(C)=O)O2)c(OC(C)=O)c2ccccc12 (stereo unspecified) | 13.1 µM | > 100 µM | – | – | – | – | –
Cc1cc(SCC(=O)c2ccccc2)nc2ccccc12 | – | 64.8 µM | – | – | – | – | –
Cc1ccc(/C(=C/C=C(C#N)C#N)Sc2ccc(Cl)cc2)cc1 | 14.3 µM | 58.4 µM | – | – | – | – | –
